Laboratory results from patent US4888431A, “Process for the preparation of substituted fused tetrahydrocarbazole acetic acid derivatives” (American Home Products Corporation, priority 1989, dated 1989).

Experiments:
Male Sprague Dawley rats = assay: Preventative Adjuvant Edema (acute anti-inflammatory effect, hind paw edema volume); type: in vivo; settings: 25 mg/kg, p.o., edema volume day 0 to day 3
Protocol: This test is a primary screen for anti-inflammatory drugs.
Male Sprague Dawley rats (180-200 g) are used. The animals have free access to water but food is withdrawn 18 hours before testing.
Freund's complete adjuvant is prepared by suspending 5 mg of killed and dried Mycobacterium butyricum (Difco) in 1 ml liquid paraffin. The test compounds are dissolved in distilled water or suspended in 0.5% Tween 80 in distilled water according to their solubility. For primary screening all drugs are administered by gastric lavage at the arbitrary dosage of 25 mg/kg, p.o. in a volume of 0.5 mL/100 g body weight to groups of 10 animals.
The method is essentially that described by Wax et al, J. Pharmacol. Exp. Ther., 192, 166-171 (1975). Groups of rats are injected intradermally in the left hind paw with 0.1 mL of Freund's complete adjuvant. The test compound or vehicle is administered immediately before the adjuvant, 24 hours and 48 hours after the adjuvant (days 0, 1 and 2). The injected hind paw volume is measured before the injection of adjuvant and 24 hours after the last drug administration (day 3) by means of a plethysmometer (Buxco Electronics Inc.). The difference between the hind paw volume on day 0 and day 3 represents the edema volume. Etodolac (25 mg/kg, p.o.) is included as a positive control.
The mean edema volume (expressed as mL ±SEM) is calculated for each group and the percentage inhibition of inflammation conferred by the drug is calculated: [formula] where c is the mean edema volume for the untreated controls and t is the mean edema volume for the drug treated group.

Male Swiss albino mice = assay: Drug Effects on Phenylbenzoquinone-induced Writhing in Mice; type: in vivo; settings: 10 mg/kg, p.o., PBQ i.p. 60 minutes after dosing, writhes counted over 15 minutes
Protocol: A further test used to determine the utility of the compounds of the present invention is designated: Drug Effects on Phenylbenzoquinone-induced Writhing in Mice
The objective of this test is to determine the ability of test drugs to inhibit the nociceptive (pain) response of mice injected with a chemical irritant. This test is a primary screen for both peripheral and centrally acting analgesic drugs.
Male Swiss albino mice (15-25 g) are used. The animals are fasted for 18 hours prior to use but have free access to water.
Drugs are dissolved or suspended according to their solubility in 0.5% Tween 80 in distilled water. They are administered by gastric gavage in a volume of 5 mL/kg. For primary screening all drugs are administered at the arbitary dosage of 25 mg/kg, p.o. to a group of 10 mice.
A modification of the method of Siegmund et al, Proc. Soc. Exp. Biol. Med., 95, 729-731 (1957) is used. Groups of 5 mice are dosed with the test compound or vehicle control. Sixty minutes later the animals are injected i.p. with 0.3 mL/20 g body weight of a 0.02% solution of phenylbenzoquinone (PBQ; 2-phenyl-1,4-benzoquinone) and placed in individual observation boxes. The number of writhing or abdominal squirming movements made by each mouse during the following 15 minute period is counted. The experiment is repeated with another group of 5 mice and the mean number of writhes per mouse for a group of 10 mice is calculated.
Drug treated and vehicle-treated control groups are compared and the percentage inhibition of writhing conferred by the drug is calculated: [formula] where c=mean number of writhes in the control group where t=mean number of writhes in the test drug group

| Structure (SMILES) | inhibition (Preventative Adjuvant Edema) (Male Sprague Dawley rats) [%] | inhibition (Phenylbenzoquinone Writhing in Mice) (Male Swiss albino mice) [%] |
| --- | --- | --- |
| Cc1c(Cl)ccc2c3c([nH]c12)[C@]1(CC(=O)O)CC[C@@H]1CC3Cc1ccccc1 (relative stereo) [Example 1, cis-7-Chloro-1,2,2a,3,4,9-hexahydro-8-methyl-4-(phenylmethyl)-9bH-cyclobuta[a]carbazole-9b-acetic Acid] | 26 | 73 |
| Cc1c(Cl)ccc2c3c([nH]c12)[C@@]1(CC(=O)O)CC[C@H]1CC3 (relative stereo) [Example 2, cis-7-Chloro-1,2,2a,3,4,9-hexahydro-8-methyl-9bH-cyclobuta[a]carbazole-9b-acetic Acid] | 85 | 56 |
| O=C(O)C[C@]12CC[C@H]1CCc1c2[nH]c2ccccc12 (relative stereo) [Example 4, cis-1,2,2a,3,4,9-Hexahydro-9bH-cyclobuta[a]carbazole-9b-acetic Acid] | 64 | 21 |
| CCCc1cc(C(C)=O)cc2c3c([nH]c12)[C@@]1(CC(=O)O)CC[C@H]1CC3 (relative stereo) [Example 5, cis-6-Acetyl-1,2,2a,3,4,9-hexahydro-8-propyl-9bH-cyclobuta[a]carbazole-9b-acetic Acid] |  | 56 |
| CCc1cccc2c3c([nH]c12)[C@]1(CC(=O)O)C[C@@H]1CC3 (relative stereo) [Example 6, (1a. α,8b. α)-7-Ethyl-1,1a,2,3,8,8b-hexahydrocyclopropa[a]carbazole-8b-acetic Acid] | 13 | 27 |
| O=C(O)C[C@@]12CC[C@@H]1CC(Cc1ccccc1)c1c2[nH]c2ccccc12 (relative stereo) [Example 7, cis-1,2,2a,3,4,9-Hexahydro-4-(phenylmethyl)-9bH-cyclobuta[a]carbazole-9b-acetic Acid] |  | 0 |
